The text below walks through data of paper PMC4074510 (Neuron, 2014).

Assay [1] has as its target T1, PIP4K2C (Phosphatidylinositol-5-phosphate 4-kinase, type II, gamma) (Homo sapiens, UniProt Q8TBX8).
T1 sequence (Q8TBX8 2-421): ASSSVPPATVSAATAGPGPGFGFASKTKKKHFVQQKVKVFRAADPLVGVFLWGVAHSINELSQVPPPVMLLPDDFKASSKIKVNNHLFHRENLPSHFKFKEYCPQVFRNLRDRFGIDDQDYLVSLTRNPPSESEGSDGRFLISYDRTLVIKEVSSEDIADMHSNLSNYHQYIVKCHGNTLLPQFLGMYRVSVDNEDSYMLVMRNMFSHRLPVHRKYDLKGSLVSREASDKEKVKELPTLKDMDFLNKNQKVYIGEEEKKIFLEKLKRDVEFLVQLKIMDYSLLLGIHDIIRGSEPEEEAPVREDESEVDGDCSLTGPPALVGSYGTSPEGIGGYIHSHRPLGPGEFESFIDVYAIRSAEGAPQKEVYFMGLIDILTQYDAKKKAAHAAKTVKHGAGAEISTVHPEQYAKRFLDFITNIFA
Put plainly: KINOMEscan competitive binding assay, dose-response.

In a further assay the target is PIP5K1C (Homo sapiens, UniProt O60331). Put plainly: microfluidic mobility shift assay with fluorescein-PI. The assay is classed as biochemical.
Chain of PIP5K1C (O60331 whole entry): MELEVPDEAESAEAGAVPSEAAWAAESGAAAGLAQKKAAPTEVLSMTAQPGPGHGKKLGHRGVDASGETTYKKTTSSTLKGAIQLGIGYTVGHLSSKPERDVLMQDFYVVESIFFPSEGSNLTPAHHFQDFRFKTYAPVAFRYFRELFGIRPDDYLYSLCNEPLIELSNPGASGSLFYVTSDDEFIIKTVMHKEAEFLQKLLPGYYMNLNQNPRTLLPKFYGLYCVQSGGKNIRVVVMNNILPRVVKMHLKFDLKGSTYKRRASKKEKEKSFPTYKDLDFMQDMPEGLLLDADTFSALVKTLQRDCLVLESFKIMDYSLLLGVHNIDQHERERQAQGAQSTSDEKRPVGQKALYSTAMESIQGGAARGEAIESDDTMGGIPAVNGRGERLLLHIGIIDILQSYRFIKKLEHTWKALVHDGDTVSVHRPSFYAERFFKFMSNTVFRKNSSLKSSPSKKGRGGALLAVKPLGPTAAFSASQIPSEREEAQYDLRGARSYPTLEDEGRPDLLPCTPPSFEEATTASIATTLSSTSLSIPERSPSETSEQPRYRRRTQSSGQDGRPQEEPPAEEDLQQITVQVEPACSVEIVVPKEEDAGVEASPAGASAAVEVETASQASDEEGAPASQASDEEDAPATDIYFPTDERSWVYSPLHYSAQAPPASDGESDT
The target in another assay is T2, SGK1 (Homo sapiens, UniProt O00141).
T2 sequence (O00141 1-431): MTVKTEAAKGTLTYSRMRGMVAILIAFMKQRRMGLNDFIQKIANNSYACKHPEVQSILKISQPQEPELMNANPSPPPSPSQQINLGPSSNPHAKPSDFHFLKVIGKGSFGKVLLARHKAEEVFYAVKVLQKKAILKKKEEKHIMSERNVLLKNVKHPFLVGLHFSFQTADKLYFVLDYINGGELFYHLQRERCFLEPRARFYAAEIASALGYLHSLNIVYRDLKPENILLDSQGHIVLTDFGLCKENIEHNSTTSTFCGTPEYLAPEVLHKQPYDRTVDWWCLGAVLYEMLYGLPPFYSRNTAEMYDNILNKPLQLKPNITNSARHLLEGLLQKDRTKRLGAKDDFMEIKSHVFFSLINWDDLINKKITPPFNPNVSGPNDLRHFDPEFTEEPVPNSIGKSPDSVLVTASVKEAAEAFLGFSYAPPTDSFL
Put plainly: KINOMEscan competitive binding at […]. To be noted: read-out: % binding remaining at 10 μM.

pIC50, pKd: −log10 of the molar value.

For `NC(=O)c1nc(Nc2ccccc2)sc1NC(=O)C1CCCCC1` [UNC3230, 5-(cyclohexanecarboxamido)-2-(phenylamino)thiazole-4-carboxamide], the pKd (as a rule, the negative decadic logarithm of the Kd, by convention in mol/L) in assay [1] is > 6.70. The pIC50 – broadly, −log10 of the IC50, conventionally taken in molar units – on PIP5K1C was ~7.39. For the same compound, the remaining binding at 10 µM at SGK1 is 8%.
